The experiment has as its system Candida albicans MTCC1637. The experiment is described as follows: Broth assay (two fold dilution method) of garlic extract in combination with essential oils. In kind it is cell-based. As to conditions: Table 3. As to the method:
Following tables presents the results of evaluation of antifungal activities of water or solvent extracts of garlic in combinations with the essential oils. […] The combinations of essential oils and garlic extracts were made according to their MICs ([…]). […] But only selected oils viz. Mentha spicata van. […] The activity increased to several folds when these combinations were added to constituent of essential oil like menthyl acetate. […] The broth assay was carried out following the NCCLS documents published by National Committee for Clinical and Laboratory Standards (USA) and disc diffusion assay according to Bauer et al (Bauer et al, […], American Journal of Clinical Pathology, 45:493-496).

For the molecule `CC(=O)OC1CC(C)CCC1C(C)C` (stereo not shown) [Menthyl acetate], the FIC value (garlic extract 1/1600) was 1.0, the FIC value (garlic extract 1/3200) amounted to 0.75 and the FIC value (garlic extract 1/6400) amounted to 0.625. In addition, the “Fold enhancement on the basis of Reduction in the MIC of oil in combination” value by setting is: (garlic extract 1/1600) 2; (garlic extract 1/3200) 2; (garlic extract 1/6400) 2. For the same molecule, the “Type of Interaction” value is on record as “Indifference” (garlic extract 1/1600), “Additive” (garlic extract 1/3200) and “Additive” (garlic extract 1/6400). For the same molecule, the “Reduction in the MIC of oil” value is 1/1600 (garlic extract 1/1600 in combination), 1/1600 (garlic extract 1/3200 in combination) and 1/1600 (garlic extract 1/6400 in combination). Moreover, where the note is “alone, dilution”, the “MIC of essential oil/extract” value was 1/800.

Source of the values: patent publication US7291349B2, “Anti-dermatophytic preparation and use thereof” (priority 2003, dated 2007).
